# Patent US20190010167A1, “INHIBITORS OF THE MENIN-MLL INTERACTION” (Vitae Pharmaceuticals, Inc., priority 2015, published 2019)
# Legend:
# [1] = target: T1, wild-type menin / MLL-AF9 fusion protein (Homo sapiens, UniProt O00255); test: AlphaLISA menin/MLL binding assay, wild-type menin (Assay 1); settings: biotinylated wild-type menin 5 nM, MLL-AF9-FLAG lysate
# T1 construct: made in house; host or cells: E. coli (menin); HEK293 cleared lysate (MLL-AF9-FLAG)
# T1 sequence (O00255 1-610): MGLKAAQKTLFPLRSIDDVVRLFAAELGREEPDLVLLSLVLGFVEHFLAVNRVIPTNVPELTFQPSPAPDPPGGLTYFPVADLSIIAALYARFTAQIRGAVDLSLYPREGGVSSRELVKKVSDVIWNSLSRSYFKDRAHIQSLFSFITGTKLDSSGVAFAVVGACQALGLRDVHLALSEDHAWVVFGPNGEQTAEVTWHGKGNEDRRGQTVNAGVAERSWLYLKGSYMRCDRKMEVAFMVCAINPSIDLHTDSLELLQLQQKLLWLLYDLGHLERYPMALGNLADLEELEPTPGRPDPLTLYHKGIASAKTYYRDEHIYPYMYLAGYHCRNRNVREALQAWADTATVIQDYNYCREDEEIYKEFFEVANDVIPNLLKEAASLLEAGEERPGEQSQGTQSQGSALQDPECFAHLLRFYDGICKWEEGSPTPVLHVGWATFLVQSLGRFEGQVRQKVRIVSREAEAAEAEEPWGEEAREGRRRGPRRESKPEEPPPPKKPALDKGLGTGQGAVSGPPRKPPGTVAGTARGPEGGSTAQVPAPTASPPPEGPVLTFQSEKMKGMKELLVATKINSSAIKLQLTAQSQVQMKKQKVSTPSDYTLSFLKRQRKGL
# Method in brief: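 Biotinylated wild-type or mutated menin (5 nM, E. coli-expressed) was preincubated 30 min at RT with compound and HEK293 lysate containing MLL1-1,396–AF9 1-92–FLAG. Buffer was 50 mM Tris-HCl pH 7.4, 5% DMSO, 50 mM NaCl, 0.01% BSA, 1 mM DTT. Anti-FLAG acceptor and streptavidin donor beads (10 μg/mL each) were then added for 60 min. IC50 came from a four-parameter fit of the Alpha signal inhibition.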
# [2] = target: T2, menin/MLL (Gal4-Menin and MLL1-46-VP16) in HEK293 cells (Homo sapiens, UniProt O00255); test: Mammalian cellular two-hybrid assay in HEK293 cells (Assay 2, cell assay); assay type: cell-based; settings: Gal4-Menin/MLL1-46-VP16 two-hybrid, NanoLuc luciferase reporter, 16-18 h
# T2 construct: expressed in transfected cells; host or cells: HEK293 (ATCC)
# Procedure: Potencies of inhibitor compounds against menin/MLL were tested in a mammalian cellular two-hybrid assay system. HEK293 cells (American Type Culture Collection (ATCC); Manassas, Va.) were co-transfected with three plasmids: one encoding Gal4-Menin (200 ng per 10^6 cells), another encoding MLL1-46-VP16 (100 ng per 10^6 cells), and a reporter plasmid pNL3.3-4×UAS (500 ng per 10^6 cells) encoding secreted NanoLuc® luciferase (Promega) with the upstream 4×UAS repeats for Gal4 binding. Transfection was performed in Opti-MEM® media using Lipofectamine® LTX with Plus™ Reagent (ThermoFisher Scientific) according to manufacturer's protocol. Cells were incubated with transfection reagents at 37° C. 5% CO2 for 5-6 h, harvested by trypsinization and centrifugation at 300×g for 5 min and resuspended in Gibco® DMEM media (phenol red-free, no antibiotics) containing 10% delipidated fetal bovine serum (FBS) (ThermoFisher Scientific). Concentration of cells in the media was adjusted to 3.5×10^5 cells/ml, and 100 μl of the cell suspension was dispensed into each well of 96-well Costar™ black clear bottom cell culture plates (Fisher Scientific). Tested compounds were added as 100 μL of 2× solutions in the media. Final concentration of DMSO was 0.1% in all wells. The cells were incubated with tested compounds at 37° C. 5% CO2 for 16-18 h. At the end of the incubation, 40 μL of the conditioned media from each well was transferred into each well of 96-well Costar™ black half-area plates (Fisher Scientific), to which 40 μl of 2× reconstituted NanoGlo® luciferase assay reagent (Promega) was added and thoroughly mixed on a microshaker for 2-3 min. Remaining media in the culture plates was removed by emptying the wells and blotting the plates on filter paper. The cells were lysed with 1× CellTiter-Glo® Luminescent Cell Viability Assay reagent (Promega) for assessing toxicity of the tested compounds. Both, Nano-Glo® and CellTiter-Glo® luminescence intensities were measured on EnVision® multilabel plate reader (PerkinElmer). Percent inhibition values were calculated based on Nano-Glo® luciferase activity observed with the tested compounds vs. DMSO control and commercially available menin inhibitor MI-2-2 (4-(4-(5,5-Dimethyl-4,5-dihydrothiazol-2-yl)piperazin-1-yl)-6-(2,2,2-trifluoroethyl)thieno[2,3-d]pyrimidine) (EMD Millipore, Cat. No. 444825) incubated with cells at 5 μM. These percent inhibition values were regressed against compound concentrations in the assay using non-linear 4-parameter logit curve fitting (XLFit, IDBS). Half maximal inhibitory concentrations (IC50) were calculated as the parameters of the fit corresponding to the inflection points on semi-logarithmic dose-response curves.
# T2 sequence (P04386 1-147 partner limits assumed, species assumed, one chain of several): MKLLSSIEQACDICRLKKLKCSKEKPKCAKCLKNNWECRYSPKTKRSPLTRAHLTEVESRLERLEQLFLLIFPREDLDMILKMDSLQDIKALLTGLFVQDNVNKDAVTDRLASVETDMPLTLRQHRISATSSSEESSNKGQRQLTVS
IC50 [1] [nM],IC50 [2] [nM],Structure (SMILES)
< 100,100 to 1000,"COC(=O)N[C@H]1CC[C@H](CN2CCC3(CCN(c4ncnc5sc(CC(F)(F)F)cc45)C3)C2)CC1 (stereo partly shown) [Example 46, Methyl ((1r,4r)-4-((7-(6-(2,2,2-trifluoroethyl)thieno[2,3-d]pyrimidin-4-yl)-2,7-diazaspiro[4.4]nonan-2-yl)methyl)cyclohexyl)carbamate]"
100 to 1000,100 to 1000,"CCC(C)CN1CC2(CCN(c3ncnc4sc(CC(F)(F)F)cc34)C2)C1 (stereo not shown) [Example 110, 4-(2-(2-methylbutyl)-2,6-diazaspiro[3.4]octan-6-yl)-6-(2,2,2-trifluoroethyl)thieno[2,3-d]pyrimidine]"
< 100,100 to 1000,"CC(=O)Nc1cccc(CN2CCC3(CCN(c4ncnc5sc(CC(F)(F)F)cc45)C3)C2)c1 (stereo not shown) [Example 52, N-(3-((7-(6-(2,2,2-trifluoroethyl)thieno[2,3-d]pyrimidin-4-yl)-2,7-diazaspiro[4.4]nonan-2-yl)methyl)phenyl)acetamide]"
< 100,100 to 1000,"O=c1[nH]c2cc(CN3CCC4(CCN(c5ncnc6cc(CC(F)(F)F)sc56)C4)C3)ccc2n1CCO (stereo not shown) [Example 119, 1-(2-hydroxyethyl)-5-((7-(6-(2,2,2-trifluoroethyl)thieno[3,2-d]pyrimidin-4-yl)-2,7-diazaspiro[4.4]nonan-2-yl)methyl)-1H-benzo[d]imidazol-2(3H)-one]"
≥ 1000,≥ 1000,"FC(F)(F)Cc1cc2c(N3CCC4(CC3)CN(Cc3ccccc3)C4)ncnc2s1 [Example 1, 4-(2-benzyl-2,7-diazaspiro[3.5]nonan-7-yl)-6-(2,2,2-trifluoroethyl) thieno[2,3-d]pyrimidine]"
< 100,100 to 1000,"CC(=O)Nc1ccc(CN2CCC3(CCN(c4ncnc5sc(CC(F)(F)F)cc45)C3)C2)c(C)c1 (stereo not shown) [Example 42, N-(3-methyl-4-((7-(6-(2,2,2-trifluoroethyl)thieno[2,3-d]pyrimidin-4-yl)-2,7-diazaspiro[4.4]nonan-2-yl)methyl)phenyl)acetamide]"
< 100,< 100,"Cc1c(CN2CCC3(CCN(c4ncnc5sc(CC(F)(F)F)cc45)C3)C2)ccc2[nH]c(C#N)cc12 (racemic) [Example 30, 4-methyl-5-((7-(6-(2,2,2-trifluoroethyl)thieno[2,3-d]pyrimidin-4-yl)-2,7-diazaspiro[4.4]nonan-2-yl)methyl)-1H-indole-2-carbonitrile]"
< 100,100 to 1000,"COC(=O)N[C@H]1CC[C@H](CN2CCC3(CC2)CN(c2ncnc4sc(CC(F)(F)F)cc24)C3)CC1 [Example 107, methyl ((1r,4r)-4-((2-(6-(2,2,2-trifluoroethyl)thieno[2,3-d]pyrimidin-4-yl)-2,7-diazaspiro[3.5]nonan-7-yl)methyl)cyclohexyl)carbamate]"
< 100,100 to 1000,"FC(F)(F)Cc1cc2c(N3CC4(CN(CC5CCCC(F)(F)C5)C4)C3)ncnc2s1 (stereo not shown) [Example 63, 4-(6-((3,3-difluorocyclohexyl)methyl)-2,6-diazaspiro[3.3]heptan-2-yl)-6-(2,2,2-trifluoroethyl)thieno[2,3-d]pyrimidine]"
< 100,100 to 1000,"Cc1c(CN2CCC3(C2)CN(c2ncnc4sc(CC(F)(F)F)cc24)C3)ccc2[nH]c(C#N)cc12 [Example 92, 4-methyl-5-((2-(6-(2,2,2-trifluoroethyl)thieno[2,3-d]pyrimidin-4-yl)-2,6-diazaspiro[3.4]octan-6-yl)methyl)-1H-indole-2-carbonitrile]"
< 100,100 to 1000,"CC1(C)CCCC(CN2CC3(C2)CN(c2ncnc4sc(CC(F)(F)F)cc24)C3)C1 (stereo not shown) [Example 65, 4-(6-((3,3-dimethylcyclohexyl)methyl)-2,6-diazaspiro[3.3]heptan-2-yl)-6-(2,2,2-trifluoroethyl)thieno[2,3-d]pyrimidine]"
< 100,≥ 1000,"FC(F)(F)Cc1cc2c(N3CC4(CCN(CC5CCOCC5)C4)C3)ncnc2s1 [Example 93, 4-(6-((tetrahydro-2H-pyran-4-yl)methyl)-2,6-diazaspiro[3.4]octan-2-yl)-6-(2,2,2-trifluoroethyl)thieno[2,3-d]pyrimidine]"
< 100,< 100,"O=c1[nH]c2ccc(CN3CCC4(CCN(c5ncnc6sc(CC(F)(F)F)cc56)C4)C3)cc2[nH]1 (stereo not shown) [Example 39, 5-((7-(6-(2,2,2-trifluoroethyl)thieno[2,3-d]pyrimidin-4-yl)-2,7-diazaspiro[4.4]nonan-2-yl)methyl)-1H-benzo[d]imidazol-2(3H)-one]"
100 to 1000,100 to 1000,"CC(C)(N)C(=O)N1CCC2(CCN(c3ncnc4sc(CC(F)(F)F)cc34)C2)C1 (stereo not shown) [Example 58, 2-Amino-2-methyl-1-(7-(6-(2,2,2-trifluoroethyl)thieno[2,3-d]pyrimidin-4-yl)-2,7-diazaspiro[4.4]nonan-2-yl)propan-1-one]"
< 100,100 to 1000,"CC(C)CN1CC2(CCN(c3ncnc4sc(CC(F)(F)F)cc34)C2)C1 [Example 108, 4-(2-isobutyl-2,6-diazaspiro[3.4]octan-6-yl)-6-(2,2,2-trifluoroethyl)thieno[2,3-d]pyrimidine]"
100 to 1000,100 to 1000,"FC(F)(F)Cc1cc2c(N3CCC4(CN(CC5CCOCC5)C4)C3)ncnc2s1 [Example 109, 4-(2-((tetrahydro-2H-pyran-4-yl)methyl)-2,6-diazaspiro[3.4]octan-6-yl)-6-(2,2,2-trifluoroethyl)thieno[2,3-d]pyrimidine]"
< 100,100 to 1000,"CS(=O)(=O)N[C@H]1CC[C@H](CN2CCC3(CCN(c4ncnc5sc(CC(F)(F)F)cc45)C3)C2)CC1 (stereo partly shown) [Example 48, N-((1r,4r)-4-((7-(6-(2,2,2-trifluoroethyl)thieno[2,3-d]pyrimidin-4-yl)-2,7-diazaspiro[4.4]nonan-2-yl)methyl)cyclohexyl)methanesulfonamide]"
< 100,100 to 1000,"FC(F)(F)Cc1cc2c(N3CCC4(CCN(Cc5ccccc5)C4)C3)ncnc2s1 (stereo not shown) [Example 43, 4-(7-benzyl-2,7-diazaspiro[4.4]nonan-2-yl)-6-(2,2,2-trifluoroethyl)thieno[2,3-d]pyrimidine]"
100 to 1000,≥ 1000,"CC(C)(C)CN1CC2(CCN(c3ncnc4sc(CC(F)(F)F)cc34)CC2)C1 [Example 18, 4-(2-neopentyl-2,7-diazaspiro[3.5]nonan-7-yl)-6-(2,2,2-trifluoroethyl)thieno[2,3-d]pyrimidine]"
< 100,100 to 1000,"FC(F)(F)Cc1cc2c(N3CC4(CN(CC5CCCC5)C4)C3)ncnc2s1 [Example 68, 4-(6-(cyclopentylmethyl)-2,6-diazaspiro[3.3]heptan-2-yl)-6-(2,2,2-trifluoroethyl)thieno[2,3-d]pyrimidine]"
